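Dose response: 5 concentrations. Exposure: 48 h. Format: 96-well plates. Endpoint: linear interpolation; highest concentration if not reached. Here, GI50 denotes the concentration required for 50% inhibition of growth.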 Activity calls are given as the source filed them. No stated cut-off is given here; in the data, active = GI50 up to about 1.1 µM and inactive = higher.
Tests used:
Experiment in all cases: NCI tumour cell line growth inhibition, 48 h
SK-MEL-5 = test system: SK-MEL-5
LOX IMVI = test system: LOX IMVI
U-251 = test system: U-251
NCI-H522 = test system: NCI-H522
EKVX = test system: EKVX
NCI-H460 = test system: NCI-H460
OVCAR-8 = test system: OVCAR-8
OVCAR-3 = test system: OVCAR-3
SF-295 = test system: SF-295
UACC-257 = test system: UACC-257
UO-31 = test system: UO-31
CCRF-CEM = test system: CCRF-CEM
HCT-116 = test system: HCT-116
Malme-3M = test system: Malme-3M
RPMI-8226 = test system: RPMI-8226
HCT-15 = test system: HCT-15
M14 = test system: M14
HCC 2998 = test system: HCC 2998
UACC-62 = test system: UACC-62
SF-268 = test system: SF-268

SMILES	GI50 (SK-MEL-5)	GI50 (LOX IMVI)	GI50 (U-251)	GI50 (NCI-H522)	GI50 (EKVX)	GI50 (NCI-H460)	GI50 (OVCAR-8)	GI50 (OVCAR-3)	GI50 (SF-295)	GI50 (UACC-257)	GI50 (UO-31)	GI50 (CCRF-CEM)	GI50 (HCT-116)	GI50 (Malme-3M)	GI50 (RPMI-8226)	GI50 (HCT-15)	GI50 (M14)	GI50 (HCC 2998)	GI50 (UACC-62)	GI50 (SF-268)
CCCCCCCC(=O)OCC1OC(n2cc(F)c(=O)[nH]c2=O)C(NC(=O)OCc2ccccc2)C(OC(=O)CCCCCCC)C1O (stereo not given)	0.309 µM (active)	15.1 µM (inactive)	22.9 µM (inactive)	16.7 µM (inactive)	42.5 µM (inactive)	35.5 µM (inactive)	34 µM (inactive)	20.6 µM (inactive)	57 µM (inactive)	39.7 µM (inactive)	0.106 µM (active)	17.5 µM (inactive)	30.1 µM (inactive)	17.9 µM (inactive)	16.6 µM (inactive)	26.5 µM	25.4 µM (inactive)	35.2 µM (inactive)	19.5 µM (inactive)	29 µM (inactive)
CCOC(=O)c1cn2c(n1)sc1cc([N+](=O)[O-])ccc12	> 100 µM (inactive)	> 100 µM (inactive)	76 µM (inactive)	> 100 µM (inactive)	> 100 µM (inactive)	> 100 µM (inactive)	> 100 µM (inactive)	> 100 µM (inactive)	37.3 µM (inactive)	> 100 µM (inactive)	> 100 µM (inactive)	> 100 µM (inactive)	> 100 µM (inactive)	> 100 µM (inactive)	> 100 µM (inactive)	> 100 µM	> 100 µM (inactive)	> 100 µM (inactive)	> 100 µM (inactive)	> 100 µM (inactive)
C=C1Oc2nc3ccccc3c(=O)n2C1(C)C	> 100 µM (inactive)	> 100 µM (inactive)	> 100 µM (inactive)	> 100 µM (inactive)	> 100 µM (inactive)	> 100 µM (inactive)	> 100 µM (inactive)	> 10 µM (inactive)	> 10 µM (inactive)	> 100 µM (inactive)	> 100 µM (inactive)	> 100 µM (inactive)	> 100 µM (inactive)	> 100 µM (inactive)	> 100 µM (inactive)	> 100 µM	> 100 µM (inactive)	> 100 µM (inactive)	> 100 µM (inactive)	> 100 µM (inactive)
NC(=O)c1ccccc1NC(=O)C(=O)C(c1cnc2ccc([N+](=O)[O-])cc2n1)[N+](=O)[O-] (stereo not given)	77.8 µM (inactive)	40.5 µM (inactive)	> 100 µM (inactive)	33.3 µM (inactive)	> 100 µM (inactive)	64.9 µM (inactive)	> 100 µM (inactive)	> 100 µM (inactive)	> 100 µM (inactive)	> 100 µM (inactive)	28.9 µM (inactive)	39.2 µM (inactive)	87.7 µM (inactive)	> 100 µM (inactive)	> 100 µM (inactive)	54.6 µM	> 100 µM (inactive)	> 100 µM (inactive)	> 100 µM (inactive)	> 100 µM (inactive)
CSc1nc2nc(C)c(C)nc2c(=O)[nH]1	> 100 µM (inactive)	> 100 µM (inactive)	> 100 µM (inactive)	> 100 µM (inactive)	> 100 µM (inactive)	> 100 µM (inactive)	> 100 µM (inactive)	> 100 µM (inactive)	> 100 µM (inactive)	> 100 µM (inactive)	> 100 µM (inactive)	> 100 µM (inactive)	> 100 µM (inactive)	> 100 µM (inactive)	> 100 µM (inactive)	> 100 µM	> 100 µM (inactive)	> 100 µM (inactive)	> 100 µM (inactive)	> 100 µM (inactive)
